The data set relates to Daudi-Cas9 cells. Description: Cancer-T cell co-culture genome-wide CRISPR knockout screen (Vγ9Vδ2 T cell killing). The data set is classed as cell-based, human. The note with it: for score: MAGeCK sgRNA test, co-culture screen; for LFC: log-fold change of sgRNA, surviving cells after co-culture vs baseline; for LFC / treat mean: MAGeCK; for treat mean: sgRNA abundance in surviving Daudi-Cas9 KO cells after 24 hours Vγ9Vδ2 T cell co-culture with zoledronate; for high_in_treatment: sgRNA enriched (TRUE) or depleted (FALSE) after T cell co-culture.

Consider “RPP21_GCACTCACGTCTCTGGCGC: library sgRNA targeting RPP21 (as printed in the source, key not given here)”, for which the score worked out at 6.2576, the LFC is on record as −7.9412, the treat mean came out at 9.6859 and the high_in_treatment result is listed as “FALSE”.

Consider “OIP5_TATTCTACCCATGCTGCCC: library sgRNA targeting OIP5 (as printed in the source, key not given here)”, for which the score is reported as 6.4136, the LFC is recorded as −5.8943, the treat mean turned out to be 45.034 and the high_in_treatment entry is “FALSE”.

For “GTF2A2_AGCACTGGCTCAGAGGGTC: library sgRNA targeting GTF2A2 (listed as DNA, chemistry not fully specified)”, the score was 6.6409, the LFC is −6.616, the treat mean turned out to be 29.574 and the high_in_treatment result was “FALSE”.

Consider “BTN2A1_AGCCCCTCATTTCAATGAG: library sgRNA targeting BTN2A1 (listed as DNA, chemistry not fully specified)”, for which the score turned out to be 7.0382, the LFC came to 1.7442, the treat mean was 1965.3 and the high_in_treatment entry is listed as “TRUE”.

With “SH3GL1_ACTTCTGTCACCGCCTTGC: library sgRNA targeting SH3GL1 (listed as DNA, chemistry not fully specified)”, the score was found to be 6.045, the LFC is reported as −7.484, the treat mean turned out to be 11.374 and the high_in_treatment entry is “FALSE”.

With “BTN3A2_ACGTCACAGCCTCTGACAG: library sgRNA targeting BTN3A2 (listed as DNA, chemistry not fully specified)”, the score is 17.862, the LFC is on record as 2.2137, the treat mean amounted to 7396.6 and the high_in_treatment result was “TRUE”.

“BTN3A1_GGGAGCCGGTTACTTCCTG: library sgRNA targeting BTN3A1 (listed as DNA, chemistry not fully specified)”: the score was found to be 21.24, the LFC is reported as 2.5697, the treat mean was determined as 7249.9 and the high_in_treatment entry is reported as “TRUE”.

For “SLC2A4_CAGGTCTGAAGCGCCTGAC: library sgRNA targeting SLC2A4 (listed as DNA, chemistry not fully specified)”, the score was determined as 6.0044, the LFC came out at 4.6166, the treat mean worked out at 47.773 and the high_in_treatment result was “TRUE”.

Consider “BTN3A1_CAGGGCGGCGATCCACCTC: library sgRNA targeting BTN3A1 (listed as DNA, chemistry not fully specified)”, for which the score turned out to be 11.298, the LFC amounted to 2.049, the treat mean is given as 3523.7 and the high_in_treatment result is given as “TRUE”.

For the substance “SPIB_CCTCGTGGCTGGCCCCGAG: library sgRNA targeting SPIB (as printed in the source, key not given here)”, the score amounted to 7.9175, the LFC worked out at 1.2165, the treat mean is recorded as 5523.4 and the high_in_treatment result was “TRUE”.

On to “EEFSEC_TCATCCGGACCATCATCGG: library sgRNA targeting EEFSEC (listed as DNA, chemistry not fully specified)”, for which the score turned out to be 6.18, the LFC is −4.9819, the treat mean amounted to 83.299 and the high_in_treatment entry was “FALSE”.

“TRMT61A_CACGTCACCTTGGAGCCGA: library sgRNA targeting TRMT61A (listed as DNA, chemistry not fully specified)”: the score stood at 6.3388, the LFC is recorded as −3.6911, the treat mean was found to be 242.28 and the high_in_treatment entry was “FALSE”.

Regarding “IRF1_TGCCTGTTTGTTCCGGAGC: library sgRNA targeting IRF1 (as printed in the source, key not given here)”, the score is on record as 11.386, the LFC is listed as 1.4325, the treat mean came out at 8072.2 and the high_in_treatment entry is given as “TRUE”.

Consider “SPI1_ATACTCGTGCGTTTGGCGT: library sgRNA targeting SPI1 (as printed in the source, key not given here)”, for which the score amounted to 8.1546, the LFC stood at 1.1261, the treat mean was found to be 6915.7 and the high_in_treatment result is reported as “TRUE”.

On to “BTN3A1_AGAGTTGAGAGAAATGGCA: library sgRNA targeting BTN3A1 (listed as DNA, chemistry not fully specified)”, for which the score is 18.173, the LFC was 2.7951, the treat mean turned out to be 4251.1 and the high_in_treatment entry is reported as “TRUE”.

Take “FBXW7_TTCTTCCAACTGTCCTTGC: library sgRNA targeting FBXW7 (as printed in the source, key not given here)”: the score was 7.5154, the LFC was found to be 1.1042, the treat mean amounted to 6114.5 and the high_in_treatment result was “TRUE”.

“RAB7A_CGGTTCCAGTCTCTCGGTG: library sgRNA targeting RAB7A (listed as DNA, chemistry not fully specified)”: the score is reported as 6.2219, the LFC is listed as −4.046, the treat mean was found to be 175.17 and the high_in_treatment result is “FALSE”.

For “FBXW7_AGGTTTCATACACAGTCCA: library sgRNA targeting FBXW7 (as printed in the source, key not given here)”, the score is 7.629, the LFC stood at 1.4859, the treat mean turned out to be 3314.5 and the high_in_treatment result was “TRUE”.

Take “BTN3A1_GTTGATGTGAAGGGTTACA: library sgRNA targeting BTN3A1 (listed as DNA, chemistry not fully specified)”: the score is reported as 9.8596, the LFC amounted to 1.9969, the treat mean was found to be 2842.7 and the high_in_treatment entry was “TRUE”.

For “SPIB_GCTAGCGAAGTTCTCCGTG: library sgRNA targeting SPIB (as printed in the source, key not given here)”, the score was determined as 8.8597, the LFC worked out at 1.4916, the treat mean was determined as 4447.4 and the high_in_treatment result was “TRUE”.

As for “PSMG4_CACCTGCGCAACCTCGCCG: library sgRNA targeting PSMG4 (listed as DNA, chemistry not fully specified)”, the score was determined as 6.1467, the LFC was −3.4412, the treat mean amounted to 279.92 and the high_in_treatment entry is “FALSE”.

For the substance “XPNPEP1_GGACTTGTAGGGATGCACC: library sgRNA targeting XPNPEP1 (as printed in the source, key not given here)”, the score is 6.7154, the LFC is listed as 1.4173, the treat mean worked out at 2841.3 and the high_in_treatment result is given as “TRUE”.
